Assay results as given in PMC4491819, “Specificity and catalysis hardwired at the RNA–protein interface in a translational proofreading enzyme” (Nature Communications, 2015).

How the values were obtained:
PabNTD = molecular target: T1, PabNTD (Pyrococcus abyssi, UniProt Q9UZ14, K121M); test: X-ray crystal structure; assay type: binding; details: editing (amino-acid/adenosine) pocket
T1 construct: gene thrS; N-terminal editing domain, residues 1-143 of ThrRS, untagged, expressed in E. coli, homodimer; all rows are K121M
T1 sequence (Q9UZ14 1-143 K121M): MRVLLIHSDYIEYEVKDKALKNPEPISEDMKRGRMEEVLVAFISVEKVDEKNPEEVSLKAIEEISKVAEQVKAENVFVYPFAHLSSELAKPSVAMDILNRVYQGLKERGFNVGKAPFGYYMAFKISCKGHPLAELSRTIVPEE

ApNTD [1] = molecular target: T2, ApNTD (Aeropyrum pernix, UniProt Q9YFY3); test: ITC (also crystal structure); assay type: binding
T2 construct: gene thrS2; N-terminal editing domain, residues 1-136 of ThrRS-2, untagged, expressed in E. coli, homodimer
T2 sequence (Q9YFY3 1-136): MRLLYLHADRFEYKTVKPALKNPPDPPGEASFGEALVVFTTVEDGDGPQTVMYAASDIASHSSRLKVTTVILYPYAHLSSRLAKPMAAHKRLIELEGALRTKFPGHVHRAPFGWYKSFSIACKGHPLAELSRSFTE

ApNTD [2] = molecular target: T3, ApNTD (Aeropyrum pernix, UniProt Q9YFY3, K116M); test: X-ray crystal structure; assay type: binding; details: editing (amino-acid/adenosine) pocket
T3 construct: gene thrS2; N-terminal editing domain, residues 1-136 of ThrRS-2, untagged, expressed in E. coli, homodimer
T3 sequence (Q9YFY3 1-136 K116M): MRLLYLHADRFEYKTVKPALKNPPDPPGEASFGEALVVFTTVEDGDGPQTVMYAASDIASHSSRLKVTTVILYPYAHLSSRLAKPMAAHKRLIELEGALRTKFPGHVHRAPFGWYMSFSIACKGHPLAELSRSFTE

ApNTD [3] = molecular target: T4, ApNTD (Aeropyrum pernix, UniProt Q9YFY3, E129A); test: X-ray crystal structure; assay type: binding; details: editing (amino-acid/adenosine) pocket
T4 construct: gene thrS2; N-terminal editing domain, residues 1-136 of ThrRS-2, untagged, expressed in E. coli, homodimer
T4 sequence (Q9YFY3 1-136 E129A): as the sequence (Q9YFY3 1-136 K116M) above, with M116K, E129A counted along it

ApNTD [4] = molecular target: T5, ApNTD (Aeropyrum pernix, UniProt Q9YFY3, Y115A); test: X-ray crystal structure; assay type: binding; details: editing (amino-acid/adenosine) pocket
T5 construct: gene thrS2; N-terminal editing domain, residues 1-136 of ThrRS-2, untagged, expressed in E. coli, homodimer
T5 sequence (Q9YFY3 1-136 Y115A): as the sequence (Q9YFY3 1-136 K116M) above, with Y115A, M116K counted along it

[5] = molecular target: N-terminal editing domain (NTD) of threonyl-tRNA synthetase from Aeropyrum pernix (Aeropyrum pernix); test: crystal structure; co-crystals with the substrate analogues L-Ser3AA or L-Thr3AA, grown at 4 °C; ApNTD in P4(1)2(1)2 with one monomer in the asymmetric unit (dimer by the crystallographic twofold); MjNTD in C2 and P2(1) with six and four monomers in the asymmetric unit
[6] = molecular target: the molecule itself; test: as above

Question: Which results are given for `Nc1ncnc2c1ncn2[C@@H]1O[C@H](CO)[C@@H](NC(=O)[C@@H](N)CO)[C@H]1O` [L-seryl-3′-aminoadenosine]?
Answer: X-ray crystal structure (PabNTD): We solved the crystal structure of K121M mutant of PabNTD; Kd (ApNTD [1]): 1 ± 0.3 µM

Question: Which X-ray crystal structure (ApNTD [2]) does the source give for `C[C@@H](O)[C@H](N)C(=O)N[C@H]1[C@@H](O)[C@H](n2cnc3c(N)ncnc32)O[C@@H]1CO` [L-threonyl-3′-aminoadenosine] here?
Answer: K116M mutant of ApNTD with L-Ser3AA and L-Thr3AA

Question: And the X-ray crystal structure (PabNTD)?
Answer: We solved the crystal structure of K121M mutant of PabNTD

Question: What about the Kd (ApNTD [1]) of the same molecule?
Answer: 13.4 ± 2.9 µM

Question: And the X-ray crystal structure (ApNTD [3])?
Answer: E129A mutant also showed a loosening of interactions upon L-Thr3AA binding

Question: What about the X-ray crystal structure (ApNTD [4]) of the same molecule?
Answer: no such loosening was observed in the case of Y115A

Question: “N-terminal editing domain (NTD) of threonyl-tRNA synthetase from Aeropyrum pernix (domain or fragment)” was tested. Which stoichiometry N [5] did it give?
Answer: 2

B1: N-terminal editing domain (NTD) of threonyl-tRNA synthetase from Methanococcus jannaschii (domain or fragment, UniProt Q58597 5-143, looked up)
chain: LIHSDYLEFEAKEKTKIAEETENLKGKLDECLACFIAVEREDENNPEGTAIGAVEEIEKVANQLKVNNIVVYPYAHLSSDLSSPETAVKVLKDIESILKERGYNVLRAPFGWYKAFKISCKGHPLSELSRKIVAKEEKK
notes: N-terminal editing domain of ThrRS of Methanococcus jannaschii, residues 5-143; untagged construct (stop codon in the reverse primer); Crystallised with the substrate analogues L-Ser3AA or L-Thr3AA; also called MjNTD; MjNTD wild type
Question: Which “stoichiometry N” value [6] does the source give for B1 here?
Answer: 2
